Measured values: PubChem BioAssay (NCI)
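A five-concentration, 48-hour dose response in 96-well plates underlies each endpoint, interpolated linearly between surrounding concentrations. GI50: concentration for 50% inhibition of growth. TGI: concentration producing complete growth inhibition.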

Assays:
Experiment in all cases: inhibition of tumour cell growth, NCI panel, 48 h
HCC-2998 colon = system: HCC-2998 colon
SNB-75 CNS = system: SNB-75 CNS
UO-31 renal = system: UO-31 renal
786-0 renal = system: 786-0 renal
OVCAR-8 ovarian = system: OVCAR-8 ovarian
KM12 colon = system: KM12 colon
BT-549 breast = system: BT-549 breast
COLO 205 colon = system: COLO 205 colon
HL-60(TB) leukemia = system: HL-60(TB) leukemia
MCF7 breast = system: MCF7 breast
RXF 393 renal = system: RXF 393 renal

COc1ccccc1NCC(=O)Nn1c(C)nc2ccc(S(=O)(=O)Nc3ccccc3OC)cc2c1=O
TGI (HCC-2998 colon): > 100 µM | TGI (SNB-75 CNS): > 100 µM | TGI (UO-31 renal): > 100 µM | TGI (786-0 renal): > 100 µM | TGI (OVCAR-8 ovarian): > 100 µM | TGI (KM12 colon): > 100 µM | TGI (BT-549 breast): > 100 µM | TGI (COLO 205 colon): > 100 µM | TGI (HL-60(TB) leukemia): > 100 µM | TGI (MCF7 breast): > 100 µM

C=C1c2nc3ccccc3n2C=C(c2ccc(OC)cc2)N1c1ccc(OCCN2CCOCC2)cc1
TGI (HCC-2998 colon): > 100 µM | TGI (SNB-75 CNS): > 100 µM | TGI (UO-31 renal): > 100 µM | TGI (786-0 renal): > 100 µM | TGI (OVCAR-8 ovarian): > 100 µM | TGI (KM12 colon): > 100 µM | TGI (BT-549 breast): > 100 µM | TGI (RXF 393 renal): > 100 µM | TGI (COLO 205 colon): > 57 µM | TGI (HL-60(TB) leukemia): > 34.8 µM | TGI (MCF7 breast): > 100 µM

C#CCCCC(=O)N(C(=O)CS(=O)CC)c1ccccc1 (stereo not given)
TGI (HCC-2998 colon): > 100 µM | TGI (SNB-75 CNS): > 100 µM | TGI (UO-31 renal): > 100 µM | TGI (786-0 renal): > 100 µM | TGI (OVCAR-8 ovarian): > 100 µM | TGI (KM12 colon): > 100 µM | TGI (BT-549 breast): > 100 µM | TGI (RXF 393 renal): > 100 µM | TGI (COLO 205 colon): > 100 µM | TGI (HL-60(TB) leukemia): > 100 µM | TGI (MCF7 breast): > 100 µM

Cc1nc2c(=O)[nH]c3ccc(Cl)cc3c2o1
TGI (HCC-2998 colon): > 100 µM | TGI (SNB-75 CNS): > 100 µM | TGI (UO-31 renal): > 100 µM | TGI (786-0 renal): > 100 µM | TGI (OVCAR-8 ovarian): > 100 µM | TGI (KM12 colon): > 100 µM | TGI (BT-549 breast): > 100 µM | TGI (RXF 393 renal): > 100 µM | TGI (COLO 205 colon): > 100 µM | TGI (MCF7 breast): > 100 µM

CN(C)c1ccc(/C=c2/c3cc([N+](=O)[O-])ccc3n3c2cc(-c2ccccc2)[n+]3C)cc1
TGI (HCC-2998 colon): 7.55 µM | TGI (SNB-75 CNS): 3.79 µM | TGI (UO-31 renal): 23 µM | TGI (786-0 renal): 10.3 µM | TGI (OVCAR-8 ovarian): 27.7 µM | TGI (KM12 colon): 2.59 µM | TGI (BT-549 breast): 13 µM | TGI (COLO 205 colon): 1.48 µM | TGI (HL-60(TB) leukemia): 1.72 µM | TGI (MCF7 breast): 8.07 µM

CCOP(=O)(OCC)C(Nc1ccc(F)cc1)c1ccccc1 (stereo not given)
TGI (HCC-2998 colon): > 100 µM | TGI (SNB-75 CNS): > 100 µM | TGI (UO-31 renal): > 100 µM | TGI (786-0 renal): > 100 µM | TGI (OVCAR-8 ovarian): > 100 µM | TGI (KM12 colon): > 100 µM | TGI (BT-549 breast): > 100 µM | TGI (RXF 393 renal): > 100 µM | TGI (COLO 205 colon): > 100 µM | TGI (HL-60(TB) leukemia): > 100 µM | TGI (MCF7 breast): > 100 µM

CC(=O)OCC1OC(N2C(S)=C(C#N)C(c3ccco3)C(C(C)=O)=C2c2ccccc2)C(OC(C)=O)C(OC(C)=O)C1OC(C)=O (stereo not given)
TGI (HCC-2998 colon): > 100 µM | TGI (SNB-75 CNS): > 100 µM | TGI (UO-31 renal): 91.4 µM | TGI (786-0 renal): > 100 µM | TGI (OVCAR-8 ovarian): > 100 µM | TGI (KM12 colon): > 100 µM | TGI (BT-549 breast): > 100 µM | TGI (RXF 393 renal): > 100 µM | TGI (COLO 205 colon): > 100 µM | TGI (HL-60(TB) leukemia): > 100 µM | TGI (MCF7 breast): > 100 µM

COC(=O)C(Cc1nc2ccccc2[nH]c1=O)C(=O)C(=O)Nc1cc(C(F)(F)F)ccc1Cl (stereo not given)
TGI (HCC-2998 colon): 26.4 µM | TGI (SNB-75 CNS): 46.1 µM | TGI (UO-31 renal): 28.9 µM | TGI (786-0 renal): 25.2 µM | TGI (OVCAR-8 ovarian): 30 µM | TGI (KM12 colon): 28.3 µM | TGI (BT-549 breast): 44.5 µM | TGI (RXF 393 renal): 46.3 µM | TGI (HL-60(TB) leukemia): 54.2 µM | TGI (MCF7 breast): 27.4 µM

O=C1c2cc([N+](=O)[O-])sc2C(=O)c2ccsc21
TGI (HCC-2998 colon): 1.7 µM | TGI (SNB-75 CNS): 2.71 µM | TGI (UO-31 renal): 2.59 µM | TGI (786-0 renal): 0.948 µM | TGI (OVCAR-8 ovarian): 2.01 µM | TGI (KM12 colon): 1.77 µM | TGI (BT-549 breast): 1.27 µM | TGI (RXF 393 renal): 1.05 µM | TGI (COLO 205 colon): 1.66 µM | TGI (MCF7 breast): 0.69 µM

CC1CC[C@@]2(OC1)OC1C[C@H]3[C@@H]4CCC5CC(O)CC[C@]5(C)[C@H]4C/C(=N\N(C)C)[C@]3(C)C1[C@@H]2C (stereo not given in full)
TGI (HCC-2998 colon): 45.6 µM | TGI (UO-31 renal): 90.4 µM | TGI (786-0 renal): 49.8 µM | TGI (KM12 colon): 85.2 µM | TGI (BT-549 breast): 83.5 µM | TGI (RXF 393 renal): 37.7 µM | TGI (COLO 205 colon): 45 µM | TGI (HL-60(TB) leukemia): 70.5 µM | TGI (MCF7 breast): > 100 µM

CC1(C)CC[C@]2(C(=O)O)[C@H](O)C[C@]3(C)C(=CC[C@@H]4[C@@]5(C)CC[C@H](OC6OC(C(=O)O)C(O)C(O)C6O)C(C)(C)[C@@H]5CC[C@]43C)[C@@H]2C1 (stereo not given in full)
TGI (HCC-2998 colon): > 100 µM | TGI (SNB-75 CNS): > 100 µM | TGI (UO-31 renal): 32 µM | TGI (786-0 renal): > 100 µM | TGI (OVCAR-8 ovarian): > 100 µM | TGI (KM12 colon): > 100 µM | TGI (BT-549 breast): 34.2 µM | TGI (RXF 393 renal): 81.6 µM | TGI (COLO 205 colon): > 100 µM | TGI (HL-60(TB) leukemia): 44.9 µM | TGI (MCF7 breast): > 100 µM

CCCCNC(=S)Nc1nc(C(=O)NNC(=O)c2ccccc2)cs1
TGI (HCC-2998 colon): 27.5 µM | TGI (SNB-75 CNS): 72.7 µM | TGI (UO-31 renal): 28.5 µM | TGI (786-0 renal): 35.2 µM | TGI (OVCAR-8 ovarian): 66.9 µM | TGI (KM12 colon): 36.9 µM | TGI (BT-549 breast): 41.4 µM | TGI (COLO 205 colon): 27.3 µM | TGI (HL-60(TB) leukemia): > 100 µM

NCCCC[C@H](N)C(=O)Nc1ccc(-c2nc3ccccc3s2)cc1Cl
TGI (HCC-2998 colon): > 38.4 µM | TGI (SNB-75 CNS): 26.8 µM | TGI (UO-31 renal): 18.3 µM | TGI (786-0 renal): 8.11 µM | TGI (OVCAR-8 ovarian): > 43.9 µM | TGI (KM12 colon): 7.81 µM | TGI (BT-549 breast): > 42.2 µM | TGI (RXF 393 renal): 27.3 µM | TGI (COLO 205 colon): 17.9 µM | TGI (MCF7 breast): 9.01 µM

OC1c2ccccc2C(O)C2OC12 (stereo not given)
TGI (UO-31 renal): > 100 µM | TGI (786-0 renal): > 100 µM | TGI (OVCAR-8 ovarian): > 100 µM | TGI (KM12 colon): > 100 µM | TGI (BT-549 breast): > 100 µM | TGI (RXF 393 renal): > 100 µM | TGI (COLO 205 colon): > 100 µM | TGI (HL-60(TB) leukemia): > 100 µM | TGI (MCF7 breast): > 100 µM

OCC(O)C(O)C(O)C(O)/C=N/Nc1nc(O)c(/C=C2\C=Nc3ccccc32)[nH]1 (stereo not given)
TGI (HCC-2998 colon): > 100 µM | TGI (SNB-75 CNS): > 100 µM | TGI (786-0 renal): > 100 µM | TGI (OVCAR-8 ovarian): > 100 µM | TGI (KM12 colon): > 100 µM | TGI (BT-549 breast): > 100 µM | TGI (RXF 393 renal): > 100 µM | TGI (COLO 205 colon): > 100 µM | TGI (HL-60(TB) leukemia): > 100 µM | TGI (MCF7 breast): > 100 µM

COc1cc(C=O)cc(C=Nc2ccc(S(N)(=O)=O)cc2)c1O
TGI (HCC-2998 colon): 42.7 µM | TGI (SNB-75 CNS): > 100 µM | TGI (UO-31 renal): > 100 µM | TGI (OVCAR-8 ovarian): > 100 µM | TGI (KM12 colon): > 100 µM | TGI (BT-549 breast): > 100 µM | TGI (RXF 393 renal): 14.5 µM | TGI (COLO 205 colon): 76.9 µM | TGI (HL-60(TB) leukemia): 75.1 µM | TGI (MCF7 breast): > 100 µM

O=C(Oc1cccc(Cl)c1)c1cc2cc(CCl)ccc2oc1=O
TGI (HCC-2998 colon): 34.4 µM | TGI (SNB-75 CNS): > 100 µM | TGI (UO-31 renal): > 100 µM | TGI (786-0 renal): > 100 µM | TGI (OVCAR-8 ovarian): > 100 µM | TGI (KM12 colon): > 100 µM | TGI (BT-549 breast): > 100 µM | TGI (RXF 393 renal): 62.7 µM | TGI (COLO 205 colon): 45.9 µM | TGI (HL-60(TB) leukemia): 82 µM | TGI (MCF7 breast): 99.6 µM

CN1C(=O)N(C)C2(CCN(CCCCCCF)CC2)C1=O
TGI (HCC-2998 colon): > 100 µM | TGI (SNB-75 CNS): > 100 µM | TGI (UO-31 renal): > 100 µM | TGI (786-0 renal): > 100 µM | TGI (OVCAR-8 ovarian): > 100 µM | TGI (KM12 colon): > 100 µM | TGI (BT-549 breast): > 100 µM | TGI (RXF 393 renal): > 100 µM | TGI (COLO 205 colon): > 100 µM | TGI (HL-60(TB) leukemia): > 100 µM | TGI (MCF7 breast): > 100 µM

COc1ccc2[nH]c(O)c(/C=c3/cc4c(c(-c5ccc(F)cc5)n3)=Nc3ccccc3-4)c2c1
GI50 (HCC-2998 colon): 3.3 µM | TGI (HCC-2998 colon): 12.6 µM | GI50 (SNB-75 CNS): 13 µM | TGI (SNB-75 CNS): 27.4 µM | GI50 (UO-31 renal): 15.5 µM | TGI (UO-31 renal): 30.3 µM | GI50 (OVCAR-8 ovarian): 2 µM | TGI (OVCAR-8 ovarian): 5.01 µM | GI50 (KM12 colon): 1.78 µM | TGI (KM12 colon): 4.46 µM | GI50 (BT-549 breast): 1.8 µM | TGI (BT-549 breast): 3.57 µM | GI50 (RXF 393 renal): 2.25 µM | TGI (RXF 393 renal): 7.53 µM | GI50 (HL-60(TB) leukemia): 9.2 µM | TGI (HL-60(TB) leukemia): > 100 µM | GI50 (MCF7 breast): 1.36 µM | TGI (MCF7 breast): 3.32 µM

O=P1(c2ccccc2)C2=CCC=CC2C(c2ccccc2)N1Cc1ccccc1 (stereo not given)
TGI (UO-31 renal): 25.8 µM | TGI (786-0 renal): 29.4 µM | TGI (OVCAR-8 ovarian): 38.1 µM | TGI (KM12 colon): 28.3 µM | TGI (BT-549 breast): 31.6 µM | TGI (COLO 205 colon): 29 µM | TGI (HL-60(TB) leukemia): 39.9 µM | TGI (MCF7 breast): 25.6 µM
